In series [1] the test system is cultured rat lenses. As to the kind of experiment: Calcium ionophore-induced cataract in cultured rat lenses (opacity by image analyser). The format is cell-based, male S.D. rats. The note with it: 10 µM calcium ionophore (A23187). The procedure:
Lenses were dissected from 4-week-old male S.D. rats, and cultured for one day in (1) a basic culture medium (MEM), (2) a culture medium of (1) supplemented with 10 µM calcium ionophore (A23187), or (3) a culture medium of (2) supplemented with 4, 20, 100 or 500 µM E-64 or E-64d. Thereafter, the medium was changed as follows: (1) basic medium, (2) basic medium, and (3) basic medium with several concentrations of E-64 or E-64d, and culture was continued for 4 more days, after which opacity of lenses was measured using an image analyser. The ratio of the inhibition of the development of lens opacity by each test drug (E-64, E-64d) to that in the control group is shown in Fig. 2. […] As is evident from the results of Fig. 2, E-64 or E-64d inhibited the opacity of lens caused by calcium ionophore in a concentration-dependent manner. The inhibition effect was stronger in E-64d than in E-64, and the opacity of lens was inhibited by 50% or more at a concentration of 20 µM.

Series [2] has as its system cultured rat lenses. The following applies: selenite cataract models and diabetic cataract models of cultured rat lenses; Atarashii Ganka, vol. 6, 1573-1576 (1989); cited from earlier work.
The subject of series [3] is galactose cataract in rats. As to the kind of experiment: Galactose cataract in rats (slit lamp, Sippel grades). The format is in vivo, male SD rats. The note with it: for progression of cataract (grades of Sippel) compared with control: Wilcoxon method; for progression of cataract compared with control, time series variance analysis: up to day 28. The procedure: Three-week-old male SD rats (n=30) were bred in a breeding room having a temperature of 24±4°C and humidity of 55±15%, on Labo MR stock (manufactured by Nihon Nosan Kogyo Co., Ltd., Japan) and tap water.
As the test drugs, used were (1) 1% solution of E-64c prepared by dissolving E-64c bulk powder in 0.1N sodium hydroxide, adjusting the pH to 5 with 0.1N hydrochloric acid, and adding purified water; and (2) 1% suspension of E-64d prepared by suspending E-64d bulk powder in 0.3% Tween 80, the osmotic pressure of both of which having been adjusted to 290 mOsm/kg H₂O with sodium chloride. As a control, used was (3) physiological saline.
The test animals were pre-bred for a week, and then bred on a 25% galactose feed (solidified product of a mixture of galactose and Labo MR stock powder at the ratio of 1:3). The animals were fed for 24 hours daily for the first 7 days, and 9 hours a day from the 8th day. The test drugs were administered from the day when galactose feeding was initiated, and (1) was administered intraperitoneally once a day (100 mg/kg, 1 ml/100g as liquid), and (2) was instilled only in the right eye 4 times a day by 5 µl at a time without treatment to the left eye. The control group was instilled with (3) in the same manner as in the case of (2) without treatment to the left eye.
Lenses were observed under mydriasis using a slit lamp (SL-5D) at 7 day-intervals from the initiation of the test drug and physiological saline (control) administrations until day 28, and the progression of cataract up to the mature cataract was evaluated according to the following 8 stages of cataract grades defined by Sippel [Invest. Ophthalmol., vol. 6, 568-575 (1966)].

Another series concerns cataract in Nakano mouse. As to the kind of experiment: Cataract in Nakano mouse, intraperitoneal administration. The format is in vivo, Nakano mice. The procedure: Thirty-five Nakano mice (9 days old) were divided into three groups, and each group was intraperitoneally administered once a day with E-64d at 30 mg/kg or 100 mg/kg, or 5% gum arabic solution as a control. E-64d was suspended in 5% gum arabic solution at a concentration of 0.15% or 0.5%, respectively, and administered to the mice. After the eyes of the mice opened, opacity of the lens was observed using a slip lamp to evaluate progress of cataract.

The nature of series [4]: Corneal permeability in vitro (side-by-side permeation cell). The procedure: Corneal permeability was tested in vitro using a side-by-side type permeation cell equipped with cornea from albino rabbit. A 1% E-64c solution prepared using a buffer having the following formulation was charged in a donor cell, and the following buffer was charged in a receptor cell, and they were incubated at 34°C. The amount of E-64c permeated into the receptor cell was measured with time. The accumulative amount of the permeated E-64c was measured 1, 2, and 3 hours later.
In the same manner as in Experiment Example 4, corneal permeability of a 1% E-64d suspension (pH 7) was examined.

Series [5] can be described thus: pH stability of 1% E-64d suspensions. The format is physicochemical. The following applies: 1% E-64d suspension. The text has this:
The stability of 1% E-64d suspensions adjusted to various pHs was examined. […]

In the case of `CC(C)C[C@H](NC(=O)[C@H]1O[C@@H]1C(=O)O)C(=O)NCCCCNC(=N)N` [E-64, trans-epoxysuccinyl-leucylamide-(4-guanidino)butane, reference compound], in the series on cultured rat lenses [1] (4, 20, 100 or 500 µM), the “inhibition of the opacity of lens caused by calcium ionophore” value is on record as “concentration-dependent”. The “effect on opacity of lens” value with cultured rat lenses [2] was “can prevent opacity of lens”.

As usually defined, the inhibition is the share of the control response that was lost under treatment. Consider `CCOC(=O)[C@H]1O[C@@H]1C(=O)N[C@@H](CC(C)C)C(=O)NCCC(C)C` [E-64d], for which the “progression of cataract (grades of Sippel) compared with control” value in series [3] (1% E-64d suspension instilled 4 times a day, 5 µl, 7 days from initiation of administration) is recorded as “significant delay of cataract”; in series [3] (1% E-64d suspension instilled 4 times a day, 5 µl, 14 days from initiation of administration), “significant delay of cataract”; in series [3] (1% E-64d suspension instilled 4 times a day, 5 µl, 21 days from initiation of administration), “delaying tendency”. For the same molecule, the “progression of cataract compared with control, time series variance analysis” value in series [3] (1% E-64d suspension instilled 4 times a day, 5 µl) is “significant delay of cataract”. Moreover, the “inhibition effect on lens opacity, E-64d compared with E-64” value in the series with cultured rat lenses [1] (4, 20, 100 or 500 µM) is reported as “stronger”. Also, the “inhibition of the opacity of lens caused by calcium ionophore” value with cultured rat lenses [1] (4, 20, 100 or 500 µM) is given as “concentration-dependent”. In addition, in the series with cultured rat lenses [1] (Rattus norvegicus, 120 h, 20 µM, 5 days culture, read-out: percent inhibition of lens opacity based on the opacity in the control group), the inhibition at 20 µM was at least 50%. Also, in the series on cataract in Nakano mouse (30 mg/kg intraperitoneally once a day, mice 21 days old (control about 40%)), the “proportion of the group showing nuclear opacity” value was “about 12%”. In the series with cataract in Nakano mouse (100 mg/kg intraperitoneally once a day, mice 21 days old (control about 40%)), the “development of nuclear opacity” value is given as “no development of opacity was observed”. The “degree of nuclear opacity compared with control, time-course observation” value in the series with cataract in Nakano mouse (E-64d 30 or 100 mg/kg intraperitoneally once a day) is recorded as “limited to a smaller degree”. Further, the “E-64d in the receptor solution” value in series [4] (pH 7) is reported as “not detected”. In addition, the stability entry in series [5] (in the vicinity of pH 4-6) is recorded as “stable”. The residual rate in series [5] (pH 4, 40°C (4 wk), 40320 min) amounted to 96.6%; in series [5] (pH 4, 60°C (1 wk), 10080 min) it was 98.7%; in series [5] (pH 5, 40°C (4 wk), 40320 min), 99.8%; in series [5] (pH 5, 60°C (1 wk), 10080 min), 98.7%; in series [5] (pH 6, 40°C (4 wk), 40320 min), 95.2%; in series [5] (pH 6, 60°C (1 wk), 10080 min) it was 97.9%. In series [5] (pH 7, 40°C (4 wk), 40320 min), this molecule yielded a residual rate of 75.7%.

On to `CC(C)CCNC(=O)[C@H](CC(C)C)NC(=O)[C@H]1O[C@@H]1C(=O)O` [E-64c, (+)-(2S,3S)-3[(S)-3-methyl-1-(3-methylbutylcarbamoyl)butylcarbamoyl]-2-oxiranecarboxylic acid], for which the “progression of cataract (grades of Sippel) compared with control” value in series [3] (1% E-64c solution, 100 mg/kg intraperitoneally once a day, 14 days from initiation of administration) is listed as “significant delay of cataract”. Further, the “progression of cataract compared with control, time series variance analysis” value in series [3] (1% E-64c solution, 100 mg/kg intraperitoneally once a day) is listed as “significant delay of cataract”. For the same molecule, the “corneal permeability, dependence on pH” value in series [4] was “pH-dependent”. The “effect on corneal tissue” value in series [4] (1% E-64c solution, pH range of 3 or below) is listed as “tissue disorders causing corneal opacity were observed”.

These data come from patent EP0641563A1, “REMEDY FOR CATARACT AND PRODUCTION THEREOF” (TAISHO PHARMACEUTICAL CO. LTD, priority 1992, dated 1993).
